Measured values reported in patent publication US9370503B1, “Compounds for treating ocular diseases” (priority 2015, dated 2016).

What was measured:
[1] = Hypoxia-induced damage in HUVECs (MTT); type: cell-based, human; conditions: human, HUVECs, 10 μg/ml, P<0.01, read-out: decrease of viability of HUVECs in hypoxic condition
Description: (§1) ARPE-19 cells were grown in DMEM/F12 medium supplemented with 10% FBS, 100 units/ml penicillin G, and 100 μg/ml streptomycin sulfate. HUVECs were grown in vascular cell basal medium supplemented with endothelial cell growth kit. Cells were incubated in a humidified incubator at 37° C. under 5% CO2 and 95% air.
(§2) MTT assay was used to measure the viability of ARPE-19 cells and HUVECs. 2×10^5 ARPE-19 cells or 5×10^4 HUVECs were seeded in 96-well plates (100 μl/well) and allowed to grow overnight. Negative control was prepared by adding 100 μl medium without cells. The cells were then treated with fresh medium with a compound of Formula (II) (“(II)”) (0.03, 0.1, 0.3, 1, 3 and 10 μg/ml) and/or oxidants (NaIO3, H2O2, t-BHP and NaN3) for 12, 24, or 72 hours (200 μl/well). The vehicle control group was treated with vehicle. 20 μl MTT (5 mg/ml) was added to wells, and incubated for another 4 h. After incubation, the medium was discarded and 100 μl DMSO was added to solubilize formazan produced from MTT by the viable cells. Absorbance was measured at 570 nm using a microplate reader (Bio-Rad Laboratories, Inc., CA). Cells viability was calculated according to the following formula: Viability of cells (%)=(absorbance in tested sample−absorbance in negative control)/(absorbance in vehicle control−absorbance in negative control)×100%.
(§3) Cells were allowed to attach overnight, and then exposed to (II) or vehicle under hypoxic condition for 72 h. Hypoxic conditions (1% O2, 5% CO2 and 94% N2) were maintained by using a temperature and humidity controlled environmental C-chamber by O2 and CO2 controllers (Proox Model 110 and Pro CO2 Model 120, Bio Spherix Ltd., Redfield, N.Y., USA) with N2 and CO2 gas sources.

HUVECs = test: Hypoxia-induced damage in HUVECs (MTT); type: cell-based, human; conditions: 72 h
Description: as §1, §2, §3

ARPE-19 cells = test: NaIO3-induced injury in ARPE-19 cells (MTT); type: cell-based, human; conditions: 72 h
Description: as §1, §2

[2] = tested on: NaIO3 induced dry AMD rat model; test: NaIO3 induced dry AMD rat model, c-wave of ERG; type: in vivo; conditions: 1% eye drops 3 times a day, 35 mg/kg NaIO3, BN rats
Description: A total of thirty 8-week-old male Brown-Norway (BN) rats were randomly divided into 3 groups, 10 rats in normal group, 10 rats in NaIO3 group and 10 rats in (II)+NaIO3 group. Control group was instilled with solvent (2-hydroxypropyl-β-cyclodextrin, Sigma-Aldrich) alone without NaIO3 injection. NaIO3 group was instilled with solvent plus 35 mg/kg NaIO3 injection through hypoglossal vein; whereas (II)+NaIO3 group was instilled with 1% (II) eye drops plus 35 mg/kg NaIO3 injection. Both eyes of all rats were instilled with 1 drop for 3 times a day for 1 week before and 4 weeks after NaIO3 injection. At the end of 2 and 4 weeks, RPE function was measured with c-wave of ERG.
BN rats were dark adapted for 2 hours, and then anesthetized with ketamine 35 mg/kg plus xylazine 5 mg/kg i.m, Half of the initial dose was given each 1 hour thereafter. Pupils of all rats were dilated with one drop each of 1% atropine, and 2.5% phenylephrine. Before recording, one drop of 0.5% tetracaine was given for surface anesthesia. All rats were kept warm during ERG measurement. DC-ERG recording methods developed by Peachey were followed. […] Data were analyzed by iWORX LabScribe Data Recording Software (iWorxOCB Sciences, Dover, N.H.). […]

Q: What does the source list for `CC(C)=CCC/C(C)=C/Cc1c([C@@H]2CC(=O)c3c(cc(O)c(CC=C(C)C)c3O)O2)ccc(O)c1O` [Formula (II)]?
A: cytotoxicity at 72 h, 10 μg/ml [1]: 97%; increase of viability of HUVECs in hypoxic condition (HUVECs; 0.03 μg/ml): 22%; increase of viability of HUVECs in hypoxic condition (HUVECs; 0.1 μg/ml): 19%; increase of viability of HUVECs in hypoxic condition (HUVECs; 0.3 μg/ml): 26%; effect on viability in NaIO3-induced injury in ARPE-19 cells (ARPE-19 cells; 30 μg/ml NaIO3, 0.03, 1, 3 and 10 μg/ml compound, P<0.05): significantly reversed; reversal of viability in NaIO3-induced injury in ARPE-19 cells (ARPE-19 cells; 100 μg/ml NaIO3, 10 μg/ml compound): 24%; reversal of viability in NaIO3-induced injury in ARPE-19 cells (ARPE-19 cells; 300 μg/ml NaIO3, 3 μg/ml compound): 7%; c-wave of ERG in NaIO3-treated rats [2]: markedly reverse; reversal of NaIO3 induced dry AMD model (c-wave of ERG) [2]: 4 times
